{"source": "patent US10253071B2", "about": "“Selectin inhibitors, composition, and uses related thereto” (Beth Israel Deaconess Medical Center, Inc., priority 2014, dated 2019)", "key": {"[1]": {"tested_on": "P-selectin (recombinant Ig chimera)", "experiment": "Microarray binding screen of glycopeptide mimics, P-selectin", "set-up": "species or system human and mouse", "conditions": "selectin Ig chimeras 5-20 μg/mL, Alexa-488 anti-human IgG", "description": "(§1) Bound peptides were detected using Alexa-488 labeled anti-human IgG antibody (5 μg/mL). Three lectins RCA-1, AAL, and PNA were used to confirm the sequence of enzymatic steps. Monoclonal antibodies CHO131, PSG2 antibody and PL-1 were used to confirm the presence of SLex, tyrosine sulfates, and the peptide sequence, respectively. Biacore binding analysis to human P-selectin with observed rate constants for (D) GSnP-6, kon 3.1×10^5 M^−1s^−1, koff 6.9×10^3 M^−1s^−; GSn2P-6, kon6.4×10^5 M^−1s^−1, koff 6.8×10^3 M^−1s. Biacore binding analysis to mouse P-selectin with observed rate constants for (E) GsnP-6, kon 4.9×10^4 M^−1s^−1, koff 8.0×10^3 M^−1s^−; GSn2P-6 kon 5.3×10^4 M^−1s^−1, koff 9.0×10^3 M^−1s. (F) Temperature- and pH-dependent stability studies of GSnP-6.\nBinding affinities of PSGL-1 mimics towards selectins was initially screened using a microarray in which glycosulfopeptides and glycan standards (Sialyl Le^x, NA2, NA2,3, NA2,6 and LNnT) were printed on a NHS-activated glass slide. The slide was then incubated with recombinant Ig chimeras of P-, L-, or E-selectin (5-20 μg/mL) followed by Alexa-488 labeled anti-human IgG antibody (5 μg/mL). […] Binding of glycopeptides mimics to selectins was […] dependent and inhibited by EDTA."}, "[2]": {"target": "T1, Recombinant mouse L-selectin Fc chimera (Mus musculus, UniProt P18337)", "T1 sequence (P18337 39-372)": "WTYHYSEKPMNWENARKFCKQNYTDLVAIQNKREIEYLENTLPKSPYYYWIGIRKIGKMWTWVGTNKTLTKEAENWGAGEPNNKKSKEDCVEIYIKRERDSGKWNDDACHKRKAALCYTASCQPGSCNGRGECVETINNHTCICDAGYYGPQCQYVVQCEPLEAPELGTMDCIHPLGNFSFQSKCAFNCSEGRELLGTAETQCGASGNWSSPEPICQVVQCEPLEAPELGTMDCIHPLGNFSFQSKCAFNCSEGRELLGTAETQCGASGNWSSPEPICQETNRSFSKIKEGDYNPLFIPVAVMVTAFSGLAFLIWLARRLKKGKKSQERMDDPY", "experiment": "Flow cytometry, inhibition of mouse L-selectin Fc chimera binding to murine neutrophils", "type": "cell-based", "conditions": "chimera 2 μg/mL, read-out: IC50, PSGL-1/L-selectin interactions, murine neutrophils", "description": "Flow cytometry was used to characterize the ability of GSnP-6 to block binding of selectin-IgG chimeras to murine and human leukocytes. Recombinant mouse P- or L-selectin Fc chimera (2 μg/mL) was incubated with murine neutrophils and GSnP-6 (0-30 μM). Likewise, recombinant human P-selectin or L-selectin Fc chimera were incubated with human peripheral blood neutrophils and monocytes, as well as the human U937 cell line in the presence of GSnP-6 (0-30 μM). Binding of selectin-IgG chimeras was detected with PE-conjugated anti-IgG antibody, quantified as mean fluorescent intensity, and plotted as percent inhibition. Specificity was confirmed with selectin-specific blocking antibodies."}, "[3]": {"experiment": "Chemical stability at low pH and at high temperature (RP-HPLC)", "type": "physicochemical", "conditions": "sodium acetate/acetic acid buffer pH 5, 37° C.; and 2 mM phosphate buffer pH 7.5, 60° C.", "description": "as §1\nThe chemical stability of GSnP-6 was evaluated under low pH conditions by incubating the compound in sodium acetate/acetic acid buffer at pH 5, 37° C., as well as under high temperature conditions by incubation in 2 mM phosphate buffer at pH 7.5, 60° C. (FIG. 3E)."}, "[4]": {"target": "T2, E-selectin (E-sel-Ig) (Homo sapiens, UniProt P16581)", "T2 sequence (P16581 22-610)": "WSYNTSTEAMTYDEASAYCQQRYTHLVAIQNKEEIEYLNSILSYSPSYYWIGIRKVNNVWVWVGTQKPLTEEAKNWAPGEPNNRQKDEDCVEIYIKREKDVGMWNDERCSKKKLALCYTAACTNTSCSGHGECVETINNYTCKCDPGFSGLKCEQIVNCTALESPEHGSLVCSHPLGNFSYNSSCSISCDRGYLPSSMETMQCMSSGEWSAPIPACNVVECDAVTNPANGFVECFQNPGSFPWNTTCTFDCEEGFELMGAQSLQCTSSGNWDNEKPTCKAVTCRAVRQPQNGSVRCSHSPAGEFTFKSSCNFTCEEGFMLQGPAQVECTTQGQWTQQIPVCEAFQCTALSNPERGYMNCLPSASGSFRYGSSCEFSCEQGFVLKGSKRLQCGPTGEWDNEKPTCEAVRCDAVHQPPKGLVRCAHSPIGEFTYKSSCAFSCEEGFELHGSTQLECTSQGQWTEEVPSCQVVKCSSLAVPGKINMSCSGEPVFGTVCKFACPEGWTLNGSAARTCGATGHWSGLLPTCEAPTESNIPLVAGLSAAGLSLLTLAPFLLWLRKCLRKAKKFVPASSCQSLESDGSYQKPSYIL", "experiment": "Biacore binding assay, E-selectin", "conditions": "compared with P-selectin", "description": "Dissociation constants (Kd) were determined using a Biacore binding assay after initial capture of biotinylated GS(n)P-6 onto streptavidin-coated sensor chips followed by flow through of P-, L- or E-sel-Ig (2.5 to 60 μg/mL). […] The Kd of GSnP-6 to murine P-selectin was ˜9-fold lower than to human P-selectin."}}, "note": "Square brackets hold non-standard residues; d marks the D form. Peptide text beside a SMILES is read from it. * marks the point of attachment. X1 = CC(=O)N[C@@H]1[C@@H](O[C@@H]2O[C@H](CO)[C@H](O)[C@H](O)[C@H]2O)[C@@H](O)[C@@H](CO[C@@H]2O[C@H](CO)[C@@H](O[C@@H]3O[C@H](CO)[C@H](O)[C@H](O[C@]4(C(=O)O)C[C@H](O)[C@@H](NC(C)=O)[C@H]([C@H](O)[C@H](O)CO)O4)[C@H]3O)[C@H](O[C@@H]3O[C@@H](C)[C@@H](O)[C@@H](O)[C@@H]3O)[C@H]2NC(C)=O)O[C@@H]1*; Phe(4-CH2SO3H) = N[C@@H](Cc1ccc(CS(=O)(=O)O)cc1)C(=O)O; Mca = COc1ccc2c(CC(=O)*)cc(=O)oc2c1", "data": [{"smiles": "COc1ccc2c(CC(=O)NCCCC[C@H](N)C(=O)N[C@@H](CCC(=O)O)C(=O)N[C@@H](Cc3ccc(CS(=O)(=O)O)cc3)C(=O)N[C@@H](CCC(=O)O)C(=O)N[C@@H](Cc3ccc(CS(=O)(=O)O)cc3)C(=O)N[C@@H](CC(C)C)C(=O)N[C@@H](CC(=O)O)C(=O)N[C@@H](Cc3ccc(CS(=O)(=O)O)cc3)C(=O)N[C@@H](CC(=O)O)C(=O)N[C@@H](Cc3ccccc3)C(=O)N[C@@H](CC(C)C)C(=O)N3CCC[C@H]3C(=O)N[C@@H](CCC(=O)O)C(=O)N[C@H](C(=O)N[C@@H](CCC(=O)O)C(=O)N3CCC[C@H]3C(=O)N[C@@H](CC(C)C)C(=O)O)[C@@H](C)O[C@H]3O[C@H](CO[C@@H]4O[C@H](CO)[C@@H](O[C@@H]5O[C@H](CO)[C@H](O)[C@H](O[C@]6(C(=O)O)C[C@H](O)[C@@H](NC(C)=O)[C@H]([C@H](O)[C@H](O)CO)O6)[C@H]5O)[C@H](O[C@@H]5O[C@@H](C)[C@@H](O)[C@@H](O)[C@@H]5O)[C@H]4NC(C)=O)[C@H](O)[C@H](O[C@@H]4O[C@H](CO)[C@H](O)[C@H](O)[C@H]4O)[C@H]3NC(C)=O)cc(=O)oc2c1", "note": "[GSnP-6] (H-K(Mca)E[Phe(4-CH2SO3H)]E[Phe(4-CH2SO3H)]LD[Phe(4-CH2SO3H)]DFLPET(X1)EPL-OH)", "values": [{"measurement": "binding to P-selectin compared with E- or L-selectin", "setting": "[1]", "result": "bound to P-selectin more strongly than to E- or L-selectin"}, {"measurement": "IC50", "setting": "[2]", "result": "> 50", "unit": "µM"}, {"measurement": "chemical stability (degraded products by RP-HPLC)", "setting": "[3]", "result": "degraded products were not detected"}, {"measurement": "apparent affinity to E-selectin", "setting": "[4]", "result": "even lower apparent affinity"}]}]}
